pIC50, pKi: −log10 of the molar value.
Experiments:
[1] = tested on: Cladosporium cucumerinum; experiment: Antifungal activity against Cladosporium cucumerinum assessed as zone of inhibition at 60 ug per disc; type: functional; details: read-out: DIZ
[2] = tested on: Cladosporium cucumerinum; experiment: Antifungal activity against Cladosporium cucumerinum assessed as zone of inhibition at 30 ug per disc; type: functional; details: read-out: DIZ
[3] = tested on: Candida albicans; experiment: Antifungal activity against Candida albicans assessed as zone of inhibition at 100 ug per disc; type: functional; details: read-out: DIZ
[4] = tested on: Rattus norvegicus; experiment: Antiarrhythmic activity in pentobarbital anesthetized rat model assessed as number of ventricular ectopics at 10 mg/kg, iv; type: functional
[5] = tested on: Rattus norvegicus; experiment: Antiarrhythmic activity in pentobarbital anesthetized rat model assessed as ventricular fibrillation at 10 mg/kg, iv relative to control; type: functional
[6] = tested on: Rattus norvegicus; experiment: Antiarrhythmic activity in pentobarbital anesthetized rat model assessed as death rate at 10 mg/kg, iv relative to control; type: functional
[7] = target: Human immunodeficiency virus type 1 protease (Human immunodeficiency virus 1, UniProt Q72874); experiment: Inhibition of HIV-1 protease assessed as inhibition
[8] = Cytotoxicity against human A2780cis cells assessed as reduction in cell viability incubated for 72 hrs; type: functional, cell-based
[9] = target: Ephrin type-A receptor 2/Ephrin-A1 (Homo sapiens, UniProt P20827+P29317); experiment: Inhibition of EPhA2-ephrin-A1 (unknown origin) protein-protein interaction; type: protein assay
Ephrin type-A receptor 2/Ephrin-A1, sequence (P29317 whole entry): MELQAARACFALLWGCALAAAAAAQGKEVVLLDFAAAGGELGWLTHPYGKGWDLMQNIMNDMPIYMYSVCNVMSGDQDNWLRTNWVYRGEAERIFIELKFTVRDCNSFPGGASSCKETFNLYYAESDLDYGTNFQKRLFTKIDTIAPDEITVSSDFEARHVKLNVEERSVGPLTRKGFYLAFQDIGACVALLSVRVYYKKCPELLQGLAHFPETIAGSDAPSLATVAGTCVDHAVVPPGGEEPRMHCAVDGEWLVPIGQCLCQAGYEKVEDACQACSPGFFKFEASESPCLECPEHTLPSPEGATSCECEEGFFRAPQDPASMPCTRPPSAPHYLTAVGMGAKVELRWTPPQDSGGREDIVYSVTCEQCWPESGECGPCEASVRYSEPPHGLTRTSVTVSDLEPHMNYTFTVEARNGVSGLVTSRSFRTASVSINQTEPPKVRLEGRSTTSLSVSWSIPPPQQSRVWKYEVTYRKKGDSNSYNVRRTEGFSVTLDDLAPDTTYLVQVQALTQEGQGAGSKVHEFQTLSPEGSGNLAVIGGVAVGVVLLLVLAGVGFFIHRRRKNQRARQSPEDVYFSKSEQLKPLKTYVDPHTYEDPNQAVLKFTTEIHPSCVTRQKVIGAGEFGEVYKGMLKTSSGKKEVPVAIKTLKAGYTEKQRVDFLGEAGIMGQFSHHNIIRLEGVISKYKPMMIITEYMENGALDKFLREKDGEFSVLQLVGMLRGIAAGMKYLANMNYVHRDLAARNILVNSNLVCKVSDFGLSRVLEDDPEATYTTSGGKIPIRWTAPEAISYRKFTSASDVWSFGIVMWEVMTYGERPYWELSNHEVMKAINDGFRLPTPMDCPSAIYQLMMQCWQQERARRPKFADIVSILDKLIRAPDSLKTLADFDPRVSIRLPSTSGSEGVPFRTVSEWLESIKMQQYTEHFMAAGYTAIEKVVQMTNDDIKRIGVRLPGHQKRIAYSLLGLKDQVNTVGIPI
Ephrin type-A receptor 2/Ephrin-A1, sequence (P20827 whole entry): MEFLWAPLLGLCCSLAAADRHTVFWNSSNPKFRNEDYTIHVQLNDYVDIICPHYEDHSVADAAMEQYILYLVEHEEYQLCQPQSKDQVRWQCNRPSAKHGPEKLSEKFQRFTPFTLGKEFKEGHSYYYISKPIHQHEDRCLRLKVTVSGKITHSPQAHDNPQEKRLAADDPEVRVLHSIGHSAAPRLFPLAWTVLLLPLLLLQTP

[10] = tested on: HeLa; experiment: Cytotoxicity against human HeLa cells assessed as reduction in cell viability; type: functional, cell-based
[11] = tested on: SH-SY5Y; experiment: Neuroprotective activity against H2O2-induced human SH-SY5Y cell injury by MTT assay relative to control; type: functional

C=C(C(=O)N[C@H](C(=O)O)c1ccc(OC)cc1)C(C)CC[C@@H](C)[C@H]1CCC2=C3[C@H](OC)C[C@H]4[C@H](C)[C@@H](OS(=O)(=O)O)CC[C@]4(C)[C@H]3CC[C@@]21C (stereo partly specified)
zone of inhibition at 60 µg/disc [1]: 8 mm
zone of inhibition at 30 µg/disc [2]: 10.1 mm
zone of inhibition at 100 µg/disc [3]: 9.8 mm

C[C@]12C[C@H](O)[C@@H](N)C[C@@H]1CC[C@@H]1[C@@H]2CC[C@]2(C)C(=O)CC[C@@H]12 [AMAFOLONE]
Activity [4]: 213
Activity [5]: 13%
Activity [6]: 0%

C[C@H](CCC(=O)N[C@H](CC(=O)OCc1ccccc1)C(=O)O)[C@H]1CC[C@H]2[C@@H]3[C@H](O)C[C@@H]4C[C@H](O)CC[C@]4(C)[C@H]3C[C@H](O)[C@]12C
pIC50 [7]: 3.90

CC(C)CCC[C@@H](C)[C@H]1CC[C@H]2[C@@H]3CC=C4C[C@@H](OC(=O)N[C@H](Cc5ccc(O)cc5)C(=O)O)CC[C@]4(C)[C@H]3CC[C@]12C
pIC50 [8]: 4.30

C[C@H](CCC(=O)O)[C@H]1CC[C@H]2[C@@H]3CC[C@@H]4CCCC[C@]4(C)[C@H]3CC[C@]12C [URSOCHOLANIC ACID]
pKi [9]: 5.29

CC(C)CCC[C@@H](C)[C@H]1CC[C@H]2[C@@H]3CC=C4C[C@@H](OC(=O)N[C@H](Cc5ccc(OP(=O)(O)O)cc5)C(=O)O)CC[C@]4(C)[C@H]3CC[C@]12C
pIC50 [10]: 4.80

COC(=O)[C@H](Cc1ccccc1)NC(=O)[C@@H](C)CC[C@H]1O[C@H]2C[C@H]3[C@@H]4CC[C@@H]5C[C@@H](OC)CC[C@]5(C)[C@H]4CC[C@]3(C)[C@H]2[C@@H]1C
Activity [11]: 102.2%
